Assay results: patent US20200048308A1, “INFLUENZA VIRUS NE[…]” (priority 2016, published 2020)
Like-named read-outs stand apart in the source and are kept apart here.

Assays:
[1] = target: H1/Nca HA (biotinylated full length trimeric HA, A/New Caledonia/20/1999) (Influenza A virus, UniProt Q6WG00); assay: AlphaLISA competition assay with HB80.4, H1/NCa HA; format: binding, influenza A virus H1N1 A/New Caledonia/20/1999
Excerpt: (§1) Binding competition studies were designed to test compounds of the invention for competition with other well characterized HA binding proteins (such as e.g. CR9114, CR6261 and HB80.4) with known epitopes on HA. The epitopes where either located at the stem of the HA (viral membrane proximal part of HA) or, for control purposes, at the head of HA (viral membrane distal part of HA). If competition was observed, it was assumed that both molecules bind to a similar or at least overlapping epitope at the surface of HA. Competition with a HA head- and stem-binder was interpreted as unspecific binding.
(§2) Hereto an AlphaLISA competition assay (Perkin Elmer) was established which relied on biotinylated full length and trimeric HA proteins (Protein Sciences, 10 μL, 0.5 nM final concentration in 50 μL) bound by HA-specific binders. The interaction between HA and the binder was detected after 1 h incubation at room temperature (RT) with two beads, a streptavidin donor bead recognizing HA (10 μL of 10 μg/mL) and an anti Fc bead (10 μg/mL) recognizing the IgGs used. If after an additional hour of incubation at RT the excited donor bead (680 nm) and acceptor bead are in close proximity, an energy transfer (singlet oxygen) can be measured as a luminescence signal of the acceptor bead (Perkin Elmer EnVision plate reader). The signal intensity in this homogeneous assay format is directly proportional to the binding strength (affinity/avidity) between both binding partners.

[2] = target: H1/Cal HA (biotinylated full length trimeric HA, A/California/07/2009) (Influenza A virus, UniProt C3W5X2); assay: AlphaLISA competition assay with HB80.4, H1/Cal HA; format: binding, influenza A virus H1N1 A/California/07/2009
Excerpt: as §1, §2

[3] = test system: influenza virus A/New Caledonia (H1); assay: Virus neutralization assay (VNA) on Calu-3 cells; format: cell-based, influenza A virus H1N1 A/New Caledonia/20/1999
[4] = ALC_H1_NCa_HB80.4 calculated pIC50, AlphaLISA competition with HB80.4 on H1 NCa HA, 0.5 nM HA
[5] = Calu-3 cells, 5 TCID50/50 μL virus, 4 days, NP ELISA readout

Structure (SMILES) | IC50 [1] | IC50 [2] | VNA_H1_NCa_Calu3 pIC50 [3] | IC50 [1, 4] | IC50 ([1]; IC50 in the alphalisa assay, best compound, strain not stated in text (matches pIC50 7.9 on H1 NCa)) | VNA_H1_NCa_Calu3 pIC50 [3, 5]
CSCC[C@@H]1NC(=O)CNC(=O)CNC(=O)[C@H](C)NC(=O)[C@H](C(C)C)NC(=O)CNC(=O)[C@H](CC(C)C)NC(=O)[C@@H]2CCCN2C(=O)[C@H](CC(=O)O)NC(=O)[C@H](CCC(=O)O)NC(=O)[C@H](Cc2ccc(O)cc2)NC(=O)[C@H](CC(C)C)NC(=O)[C@H](CO)NC(=O)[C@H]2CCCN2C(=O)[C@@H]2CCCN2C(=O)[C@H](C(C)C)NC(=O)CNC1=O [CP141091, D-Pro-Ser-Leu-Tyr-Glu-Asp-Pro-Leu-Gly-Val-Ala-Gly-Gly-Met-Gly-Val-Pro] | 6310 nM | 5010 nM | 4.2 |  |  | 
CSCC[C@@H]1NC(=O)CNC(=O)CNC(=O)[C@H](C)NC(=O)[C@H](C(C)C)NC(=O)CNC(=O)[C@H](CC(C)C)NC(=O)[C@@H]2CCCN2C(=O)[C@H](CC(=O)O)NC(=O)[C@H](CCC(=O)O)NC(=O)[C@H](Cc2ccc(O)cc2)NC(=O)[C@@H](NC(=O)CCC(=O)O)CSSC[C@@H](C(N)=O)NC1=O [CP141070, Suc-Cys-Tyr-Glu-Asp-Pro-Leu-Gly-Val-Ala-Gly-Gly-Met-Cys-NH2] | 3980 nM | 6310 nM | 4.4 |  |  | 
CSCC[C@@H]1NC(=O)CNC(=O)CNC(=O)[C@H](C)NC(=O)[C@H](C(C)C)NC(=O)CNC(=O)[C@H](CC(C)C)NC(=O)[C@@H]2CCCN2C(=O)[C@H](CC(=O)O)NC(=O)[C@H](CCC(=O)O)NC(=O)[C@H](Cc2ccc(O)cc2)NC(=O)[C@H](CC(C)C)NC(=O)[C@H](CO)NC(=O)[C@H](C(C)C)NC(=O)[C@@H]2CCCN2C(=O)[C@H]2CCCN2C(=O)[C@H](Cc2ccc(O)cc2)NC(=O)[C@H](C(C)C)NC(=O)CNC1=O [CP141085, Pro-Val-Ser-Leu-Tyr-Glu-Asp-Pro-Leu-Gly-Val-Ala-Gly-Gly-Met-Gly-Val-Tyr-D-Pro] |  | 15.8 nM |  | 12.6 nM | 13 nM | 5.9
CSCC[C@@H]1NC(=O)CNC(=O)CNC(=O)[C@H](C)NC(=O)[C@H](C(C)C)NC(=O)CNC(=O)[C@H](CC(C)C)NC(=O)[C@@H]2CCCN2C(=O)[C@H](CC(=O)O)NC(=O)[C@H](CCCNC(=N)N)NC(=O)[C@H](Cc2ccc(O)cc2)NC(=O)[C@H](CC(C)C)NC(=O)[C@@H](NC(=O)CCC(=O)O)CSSC[C@@H](C(N)=O)NC(=O)CNC1=O [CP141076, Suc-Cys-Leu-Tyr-Arg-Asp-Pro-Leu-Gly-Val-Ala-Gly-Gly-Met-Gly-Cys-NH2] |  | 100 nM |  | 126 nM |  | 6.0
CSCC[C@@H]1NC(=O)CNC(=O)CNC(=O)[C@H](C)NC(=O)[C@H](C(C)C)NC(=O)CNC(=O)[C@H](CC(C)C)NC(=O)[C@@H]2CCCN2C(=O)[C@H](CC(=O)O)NC(=O)[C@H](CCC(=O)O)NC(=O)[C@H](Cc2ccc(O)cc2)NC(=O)[C@H](CC(C)C)NC(=O)[C@H](CO)NC(=O)[C@H](C(C)C)NC(=O)CNC(=O)[C@H]2CCCN2C(=O)[C@H](Cc2ccc(O)cc2)NC(=O)[C@H](C(C)C)NC(=O)CNC1=O [CP141082, Gly-Val-Ser-Leu-Tyr-Glu-Asp-Pro-Leu-Gly-Val-Ala-Gly-Gly-Met-Gly-Val-Tyr-D-Pro] |  | 20 nM |  | 20 nM |  | 4.3
CSCC[C@@H]1NC(=O)CNC(=O)CNC(=O)[C@H](C)NC(=O)[C@H](C(C)C)NC(=O)CNC(=O)[C@H](CC(C)C)NC(=O)[C@@H]2CCCN2C(=O)[C@H](CC(=O)O)NC(=O)[C@H](CCC(=O)O)NC(=O)[C@H](Cc2ccc(O)cc2)NC(=O)[C@H](CC(C)C)NC(=O)[C@@H](NC(=O)CCC(=O)O)CSSC[C@@H](C(N)=O)NC(=O)CNC1=O [CP141069, Suc-Cys-Leu-Tyr-Glu-Asp-Pro-Leu-Gly-Val-Ala-Gly-Gly-Met-Gly-Cys-NH2] |  | 316 nM |  | 158 nM |  | 6.1
CSCC[C@@H]1NC(=O)CNC(=O)CNC(=O)[C@H](C)NC(=O)[C@H](C(C)C)NC(=O)CNC(=O)[C@H](CC(C)C)NC(=O)[C@@H]2CCCN2C(=O)[C@H](CC(=O)O)NC(=O)[C@H](CCC(=O)O)NC(=O)[C@H](Cc2ccc(O)cc2)NC(=O)[C@H](CC(C)C)NC(=O)CNC(=O)CNC1=O [CP141087, Leu-Tyr-Glu-Asp-Pro-Leu-Gly-Val-Ala-Gly-Gly-Met-Gly-Gly] | 631 nM | 501 nM | 4.9 |  |  | 
